Measured values from US9040524B2, “Antifungal 5,6-dihydro-4H-pyrrolo[1,2-a][1,4]-benzodiazepines and 6H-pyrrolo[1,2-a][1,4]benzodiazepines substituted with bicycle benzene derivatives” (JANSSEN PHARMACEUTICA NV, priority 2010, dated 2015).

Columns and labels:
Type in all cases: cell-based
[1] = test system: Aspergillus fumigatus; assay: Antifungal activity in vitro, resazurin growth inhibition screen: Aspergillus fumigatus; settings: Aspergillus fumigatus B42928; for IC50: read-out: Inf. E pIC50 (converted)
Protocol: (§1) The standard susceptibility screen was performed in 96-well plates (U-bottom, Greiner Bio-One). Serial dilutions (2-fold or 4-fold) of 20 mM compound stock solutions were made in 100% DMSO, followed by an intermediate dilution step in water. These serial dilutions (10 μl) were then spotted onto test-plates that could be stored in the dark at 4° C. for a maximum period of 2 weeks. An adequate broad dose-range was included with 64 μM as the highest in-test concentration. […] The different fungal species/isolates (Table 3a) were cryopreserved and 1/1000 diluted in medium just prior to use. A standard inoculum of 200 μl containing 10^3 colony-forming unit (cfu) was then added to each well. A positive control (100% growth=fungal culture without antifungal) and a negative control (0% growth=RPMI-MOPS medium) were included on each plate.

[2] = test system: Trichophyton rubrum; assay: Antifungal activity in vitro, resazurin growth inhibition screen: Trichophyton rubrum; settings: Trichophyton rubrum B68183; for IC50: read-out: Inf. C pIC50 (converted)
Protocol: as §1

[3] = test system: Candida parapsilosis; assay: Antifungal activity in vitro, resazurin growth inhibition screen: Candida parapsilosis; settings: Candida parapsilosis B66126; for IC50: Lodderomyces parapsilosis, read-out: Inf. D pIC50 (converted)
Protocol: as §1

[4] = test system: Cryptococcus neoformans; assay: Antifungal activity in vitro, resazurin growth inhibition screen: Cryptococcus neoformans; settings: Cryptococcus neoformans B66663; for IC50: read-out: Inf. F pIC50 (converted)
Protocol: as §1

[5] = test system: Microsporum canis; assay: Antifungal activity in vitro, resazurin growth inhibition screen: Microsporum canis; settings: Microsporum canis B68128; for IC50: read-out: Inf. B pIC50 (converted)
Protocol: as §1

[6] = test system: Trichophyton mentagrophytes; assay: Antifungal activity in vitro, resazurin growth inhibition screen: Trichophyton mentagrophytes; settings: Trichophyton mentagrophytes B70554; for IC50: read-out: Inf. G pIC50 (converted)
Protocol: as §1

[7] = test system: Sporothrix schenkii; assay: Antifungal activity in vitro, resazurin growth inhibition screen: Sporothrix schenkii; settings: Sporothrix schenkii B62482; for IC50: read-out: Inf. A pIC50 (converted)
Protocol: as §1

| SMILES | Inf. E pIC50 [1] | Inf. C pIC50 [2] | Inf. D pIC50 [3] | Inf. F pIC50 [4] | Inf. B pIC50 [5] | Inf. G pIC50 [6] | Inf. A pIC50 [7] | IC50 [1] [µM] | IC50 [2] [µM] | IC50 [3] [µM] | IC50 [4] [µM] | IC50 [5] [µM] | IC50 [6] [µM] | IC50 [7] [µM] |
| --- | --- | --- | --- | --- | --- | --- | --- | --- | --- | --- | --- | --- | --- | --- |
| Cl.Clc1ccc(Cl)c2c1CNC(c1ccc3c(c1)CCO3)c1cccn1-2 (centres unmarked) [Compound 32, 7,10-dichloro-4-(2,3-dihydro-5-benzofuranyl)-5,6-dihydro-4H-pyrrolo[1,2-a][1,4]-benzodiazepine .HCl] | <4.19 | 5.22 | <4.19 | 4.64 | 5.52 | 4.92 | <4.19 | – | – | – | – | – | – | – |
| Cl.Clc1ccc(Cl)c2c1CNC(c1ccc3c(c1)OCC3)c1cccn1-2 (centres unmarked) [Compound 33, 7,10-dichloro-4-(2,3-dihydro-6-benzofuranyl)-5,6-dihydro-4H-pyrrolo[1,2-a][1,4]-benzodiazepine .HCl] | <4.19 | 5.15 | <4.19 | <4.19 | 5.52 | <4.19 | <4.19 | – | – | – | – | – | – | – |
| Cl.Clc1cc(Cl)c2c(c1)CNC(c1ccc3c(c1)CCO3)c1cccn1-2 (centres unmarked) [Compound 34, 8,10-dichloro-4-(2,3-dihydro-5-benzofuranyl)-5,6-dihydro-4H-pyrrolo[1,2-a][1,4]-benzodiazepine .HCl] | <4.19 | 5.70 | <4.19 | 5.52 | 5.70 | 4.96 | <4.19 | – | – | – | – | – | – | – |
| Fc1cccc2c1CN=C(c1ccc3c(c1)CCCO3)c1cccn1-2 [Compound 40, 4-(3,4-dihydro-2H-1-benzopyran-6-yl)-7-fluoro-6H-pyrrolo[1,2-a][1,4]benzo-diazepine] | <4.19 | <4.19 | 5.56 | 5.87 | 4.49 | <4.19 | <4.19 | – | – | – | – | – | – | – |
| Clc1ccc2c(c1)-n1cccc1C(c1ccc3c(c1)CCOC3)=NC2 [Compound 41, 9-chloro-4-(3,4-dihydro-1H-2-benzopyran-6-yl)-6H-pyrrolo[1,2-a][1,4]benzo-diazepine] | <4.19 | <4.19 | 5.60 | 4.52 | 4.48 | 4.49 | <4.19 | – | – | – | – | – | – | – |
| Clc1ccc2c(c1)-n1cccc1C(c1ccc3c(c1)CCCO3)=NC2 [Compound 42, 9-chloro-4-(3,4-dihydro-2H-1-benzopyran-6-yl)-6H-pyrrolo[1,2-a][1,4]benzo-diazepine] | <4.19 | <4.19 | 5.63 | 6.82 | 4.49 | <4.19 | 5.10 | – | – | – | – | – | – | – |
| Clc1ccc2c(c1Cl)CN=C(c1ccc3c(c1)CCO3)c1cccn1-2 [Compound 44, 7,8-dichloro-4-(2,3-dihydro-5-benzofuranyl)-6H-pyrrolo[1,2-a][1,4]benzodiazepine] | – | – | – | – | – | – | – | > 64.6 | 5.01 | 12 | 7.08 | 5.01 | 7.94 | 5.01 |
| Fc1cc(F)c2c(c1)-n1cccc1C(c1ccc3c(c1)CCCO3)=NC2 [Compound 46, 4-(3,4-dihydro-2H-1-benzopyran-6-yl)-7,9-difluoro-6H-pyrrolo[1,2-a][1,4]benzo-diazepine] | 4.49 | 4.44 | 5.79 | 5.49 | 4.48 | <4.19 | 4.49 | – | – | – | – | – | – | – |
| Clc1ccc(Cl)c2c1CN=C(c1ccc3c(c1)OCC3)c1cccn1-2 [Compound 47, 7,10-dichloro-4-(2,3-dihydro-6-benzofuranyl)-6H-pyrrolo[1,2-a][1,4]benzo-diazepine] | <4.19 | 5.92 | <4.19 | <4.19 | 5.40 | <4.19 | <4.19 | – | – | – | – | – | – | – |
| Br.CCOc1cc2c(cc1C1NCc3c(Cl)cccc3-n3cccc31)OC(C)C2 (centres unmarked) [Compound 50, 7-chloro-4-(5-ethoxy-2,3-dihydro-2-methyl-6-benzofuranyl)-5,6-dihydro-4H-pyrrolo[1,2-a][1,4]benzodiazepine .HBr] | <4.19 | 5.52 | <4.19 | 4.74 | 4.92 | <4.19 | <4.19 | – | – | – | – | – | – | – |
| Cl.O=C1CCc2ccc(C3NCc4c(Cl)cccc4-n4cccc43)cc21 (centres unmarked) [Compound 52, 6-(7-chloro-5,6-dihydro-4H-pyrrolo[1,2-a][1,4]benzodiazepin-4-yl)-2,3-dihydro-1H-inden-1-one .HCl] | <4.19 | 4.55 | <4.19 | <4.19 | <4.80 | 4.31 | <4.19 | – | – | – | – | – | – | – |
| Cl.Fc1cccc2c1CNC(c1ccc3c(c1)CCC(F)(F)O3)c1cccn1-2 (centres unmarked) [Compound 53, 4-(2,2-difluoro-3,4-dihydro-2H-1-benzopyran-6-yl)-7-fluoro-5,6-dihydro-4H-pyrrolo[1,2-a][1,4]benzodiazepine .HCl] | 4.97 | 4.50 | <4.19 | 4.87 | 4.49 | 4.49 | <4.19 | – | – | – | – | – | – | – |
| Cl.Fc1cc(F)c2c(c1)-n1cccc1C(c1ccc3c(c1)CCC(F)(F)O3)NC2 (centres unmarked) [Compound 54, 4-(2,2-difluoro-3,4-dihydro-2H-1-benzopyran-6-yl)-7,9-difluoro-5,6-dihydro-4H-pyrrolo[1,2-a][1,4]benzodiazepine .HCl] | <4.19 | 5.10 | <4.19 | 5.11 | 5.09 | 4.49 | <4.19 | – | – | – | – | – | – | – |
| O=C1CCc2cc(C3=NCc4cccc(Cl)c4-n4cccc43)ccc21 [Compound 57, 5-(10-chloro-6H-pyrrolo[1,2-a][1,4]benzodiazepin-4-yl)-2,3-dihydro-1H-inden-1-one] | – | – | – | – | – | – | – | 2.4 | 1.58 | > 64.6 | 5.89 | 2 | 3.98 | 2.24 |
| O=C1CCCc2cc(C3=NCc4cccc(Cl)c4-n4cccc43)ccc21 [Compound 61, 6-(10-chloro-6H-pyrrolo[1,2-a][1,4]benzodiazepin-4-yl)-3,4-dihydro-1 (2H)-naphthalenone] | – | – | – | – | – | – | – | 32.4 | 49 | 4.37 | 8.13 | > 64.6 | > 64.6 | 31.6 |
| FC1(F)CCc2cc(C3=NCc4c(Cl)cccc4-n4cccc43)ccc21 [Compound 66, 7-chloro-4-(1,1-difluoro-2,3-dihydro-1H-inden-5-yl)-6H-pyrrolo[1,2-a][1,4]benzo-diazepine] | 5.09 | <4.19 | 5.55 | 6.11 | 4.49 | <4.19 | 4.46 | – | – | – | – | – | – | – |
| FC1(F)CCc2cc(C3=NCc4ccc(Cl)cc4-n4cccc43)ccc21 [Compound 67, 9-chloro-4-(1,1-difluoro-2,3-dihydro-1H-inden-5-yl)-6H-pyrrolo[1,2-a][1,4]benzo-diazepine] | 5.10 | <4.19 | 5.90 | 5.36 | 5.09 | 5.09 | 5.10 | – | – | – | – | – | – | – |
| FC1(F)CCc2cc(C3=NCc4cccc(Cl)c4-n4cccc43)ccc21 [Compound 68, 10-chloro-4-(1,1-difluoro-2,3-dihydro-1H-inden-5-yl)-6H-pyrrolo[1,2-a][1,4]benzo-diazepine] | 4.19 | <4.19 | <4.19 | <4.19 | <4.19 | <4.19 | <4.19 | – | – | – | – | – | – | – |
| FC1(F)CCc2cc(C3=NCc4ccc(Cl)cc4-n4cccc43)ccc2O1 [Compound 71, 9-chloro-4-(2,2-difluoro-3,4-dihydro-2H-1-benzopyran-6-yl)-6H-pyrrolo[1,2-a]-[1,4]benzodiazepine] | – | – | – | – | – | – | – | 0.219 | 0.269 | 8.13 | 0.1 | 0.617 | 0.309 | 1.95 |
| FC1(F)CCc2cc(C3=NCc4cccc(Cl)c4-n4cccc43)ccc2O1 [Compound 72, 10-chloro-4-(2,2-difluoro-3,4-dihydro-2H-1-benzopyran-6-yl)-6H-pyrrolo[1,2-a]-[1,4]benzodiazepine] | – | – | – | – | – | – | – | 0.617 | 0.407 | 11 | 0.38 | 0.407 | 1.62 | 2.63 |
